The values that follow come from US20120178742A1, “METABOTROPIC GLUTAMATE RECEPTOR MODULATORS” (MERZ PHARMA GmbH & CO. KGaA, priority 2009, published 2012).

The target in test [1] is T1, human metabotropic glutamate receptor mGluR5 (Homo sapiens, UniProt P41594).
T1 construct: expressed in transfected cells; host or cells: CHO-K1
As to the kind of experiment: Cytosolic calcium studies with stably transfected cells (CHO-K1). Format: cell-based. The procedure: Functional Assay of mGluR5 Receptors Cytosolic Calcium Studies with Stably Transfected Cells
Chinese hamster ovary cells (CHO-K1 cells), stably transfected for inducible expression of a human metabotropic glutamate receptor mGluR5, are seeded into black clear bottom 96 well plates at a density of 35.000 cells per well. The standard growth medium used (Dulbecco's modified Eagle Medium, DMEM plus L-proline) contains the appropriate inducer isopropyl-β-D-thiogalactopyranosid (IPTG) to achieve optimal receptor expression. One day after seeding the growth medium is exchanged for reconstituted Ca-Kit (Molecular Devices, USA) and incubated for one hour. Ca-Kit is reconstituted in an assay buffer containing 20 mM HEPES pH 7.4, glutamic-pyruvate transaminase, pyridoxal phosphate and sodium pyruvate in Hank's balanced salt solution (HBBS). Agonistic compounds to the receptor elicit increases in cytosolic calcium which can be measured as increases in fluorescence signals by use of a fluorescence imaging plate reader (Molecular Devices). […] Similarly, for the characterization of positive allosteric modulators, a dilution series of the test compound is added online to 384 well plates containing the described dye loaded cells and after a preincubation time of 5 minutes stimulated by a basal cell concentration of the agonist L-glutamate giving about 20% of the maximal signal.
(§1) The fluorescence signal increase after addition of agonist reflects the increase of cytosolic calcium. Inconsistencies in the amount of cells per well are normalised by using the spatial uniformity correction of the FLIPR operating software Screenworks. The mean of replicated temporal data (n=3-5) is calculated and used for graphical representation. For the evaluation of the pharmacology, the calcium changes in response to different concentrations of agonist or antagonist are determined using a maximum minus minimum (MaxMin) calculation.
(§2) All responses (RFU-values) are determined as percentage of control (=maximum response). EC50 and IC50 are calculated according the logistic equation using Prism 4.0 (GraphPad Software, USA).

Another test addresses T2, mGluR5 receptors (Rattus norvegicus, UniProt P31424).
T2 construct: Primary astrocyte cultures are prepared from cortices of newborn rats; endogenous in cells; host or cells: primary rat cortical astrocytes (Sprague-Dawley pups)
As to the kind of experiment: Cytosolic calcium studies with cultured rat astrocytes. It counts as cell-based. The protocol:
Primary astrocyte cultures are prepared from cortices of newborn rats as described by Booher and Sensenbrenner (1972, Neurobiology 2(3):97-105). Briefly, Sprague-Dawley rat pups (2-4 d old) are decapitated and neocortices are dissected, disintegrated with a nylon filter (pore size 80 μm) and carefully triturated. The cell suspension is plated on poly-D-lysine pre-coated flasks (Costar, Netherlands) and cultivated in Dulbecco's Modified Eagle's Medium (DMEM, Invitrogen, Germany) supplemented with 10% foetal calf serum (FCS, Sigma, Germany), 4 mM glutamine and […] gentamycin (both Biochrom, Germany) at 37° C. in a humidified atmosphere of 5% CO2/95% air for 7 days with exchanging the medium at day 2 and 6.
After 7 days in vitro (DIV), cells are shaken overnight at 250 rpm to remove oligodendrocytes and microglia. The next day, astrocytes are rinsed twice with CMF-PBS (calcium- and magnesium-free phosphate buffered saline, Biochrom, Germany), trypsinized and subplated on poly-D-lysine pre-coated 96-well plates (Greiner, Germany) at a density of 40,000 cells/well. 24 h after establishing the secondary culture the astrocytes are rinsed with PBS″ (phosphate buffered saline, Biochrom, Germany) and fed with astrocyte-defined medium (ADM) consisting of DMEM containing 1× G5-supplement (Invitrogen, Germany), 0.5 μg/ml heparan sulfate, and 1.5 μg/ml fibronectin (both Sigma, Germany) (Miller et al., (1993) Brain Res. 618(1):175-8). 3 days later the medium is exchanged and the cells incubated for another 2-3 days, so that at the time of experiments astrocytes are 14-15 DIV.
The increase of cytosolic calcium after stimulation with the mGluR5 agonist L-quisqualate is measured using a fluorometric imaging plate reader (FLIPR) and the Ca-Kit (both Molecular Devices). Prior to addition of agonist or antagonist the medium is aspirated and cells are loaded for 2 h at RT with 150 μl of loading buffer consisting of Ca-sensitive dye reconstituted in sodium chloride (123 mM), potassium chloride (5.4 mM), magnesium chloride (0.8 mM), calcium chloride (1.8 mM), D-glucose (15 mM), and HEPES (20 mM), pH 7.3. Subsequently, plates are transferred to FLIPR to detect calcium increase with the addition of L-quisqualate (100 nM) measured as relative fluorescence units (RFU). If antagonists are tested, these compounds are pre-incubated for 10 minutes at RT before addition of the respective agonist.
Thereafter, concentration-response curves for the positive modulator are performed in the presence of a fixed concentration of quisqualate showing the biggest window for potentiation (normally 10-30 nM).
as §1, §2

In general, EC50 refers to the concentration giving half of the maximal effect.

T1 sequence (P41594 21-1212): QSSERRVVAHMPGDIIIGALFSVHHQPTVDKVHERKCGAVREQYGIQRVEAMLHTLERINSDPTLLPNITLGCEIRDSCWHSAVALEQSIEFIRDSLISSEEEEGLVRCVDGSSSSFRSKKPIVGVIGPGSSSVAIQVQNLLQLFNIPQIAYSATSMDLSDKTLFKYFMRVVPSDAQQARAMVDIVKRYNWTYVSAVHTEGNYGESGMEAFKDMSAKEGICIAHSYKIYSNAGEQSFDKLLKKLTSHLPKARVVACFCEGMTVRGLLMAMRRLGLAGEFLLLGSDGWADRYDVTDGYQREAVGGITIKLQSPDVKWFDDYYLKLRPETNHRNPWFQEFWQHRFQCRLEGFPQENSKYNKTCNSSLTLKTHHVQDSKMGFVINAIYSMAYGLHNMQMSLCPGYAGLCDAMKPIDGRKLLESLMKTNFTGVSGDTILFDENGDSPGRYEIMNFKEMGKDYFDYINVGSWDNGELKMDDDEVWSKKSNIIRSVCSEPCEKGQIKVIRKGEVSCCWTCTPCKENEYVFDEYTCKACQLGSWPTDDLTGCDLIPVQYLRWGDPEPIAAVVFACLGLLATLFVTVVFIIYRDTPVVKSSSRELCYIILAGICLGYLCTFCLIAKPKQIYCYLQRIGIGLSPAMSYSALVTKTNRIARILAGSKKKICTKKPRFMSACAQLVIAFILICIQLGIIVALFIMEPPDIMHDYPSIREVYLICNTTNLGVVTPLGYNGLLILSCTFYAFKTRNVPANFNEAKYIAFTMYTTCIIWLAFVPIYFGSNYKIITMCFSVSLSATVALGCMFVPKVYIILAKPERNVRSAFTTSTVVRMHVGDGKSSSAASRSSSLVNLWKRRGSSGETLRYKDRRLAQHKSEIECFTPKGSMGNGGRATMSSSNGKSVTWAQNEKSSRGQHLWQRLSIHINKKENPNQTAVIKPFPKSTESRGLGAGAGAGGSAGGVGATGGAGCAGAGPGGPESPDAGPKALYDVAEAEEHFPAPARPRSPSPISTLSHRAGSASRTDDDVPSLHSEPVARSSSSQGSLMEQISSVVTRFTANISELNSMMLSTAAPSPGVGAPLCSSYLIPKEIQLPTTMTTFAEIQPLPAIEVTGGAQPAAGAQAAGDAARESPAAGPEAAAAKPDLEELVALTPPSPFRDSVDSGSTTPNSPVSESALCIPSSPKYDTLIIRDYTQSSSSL
T2 sequence (P31424 21-1203): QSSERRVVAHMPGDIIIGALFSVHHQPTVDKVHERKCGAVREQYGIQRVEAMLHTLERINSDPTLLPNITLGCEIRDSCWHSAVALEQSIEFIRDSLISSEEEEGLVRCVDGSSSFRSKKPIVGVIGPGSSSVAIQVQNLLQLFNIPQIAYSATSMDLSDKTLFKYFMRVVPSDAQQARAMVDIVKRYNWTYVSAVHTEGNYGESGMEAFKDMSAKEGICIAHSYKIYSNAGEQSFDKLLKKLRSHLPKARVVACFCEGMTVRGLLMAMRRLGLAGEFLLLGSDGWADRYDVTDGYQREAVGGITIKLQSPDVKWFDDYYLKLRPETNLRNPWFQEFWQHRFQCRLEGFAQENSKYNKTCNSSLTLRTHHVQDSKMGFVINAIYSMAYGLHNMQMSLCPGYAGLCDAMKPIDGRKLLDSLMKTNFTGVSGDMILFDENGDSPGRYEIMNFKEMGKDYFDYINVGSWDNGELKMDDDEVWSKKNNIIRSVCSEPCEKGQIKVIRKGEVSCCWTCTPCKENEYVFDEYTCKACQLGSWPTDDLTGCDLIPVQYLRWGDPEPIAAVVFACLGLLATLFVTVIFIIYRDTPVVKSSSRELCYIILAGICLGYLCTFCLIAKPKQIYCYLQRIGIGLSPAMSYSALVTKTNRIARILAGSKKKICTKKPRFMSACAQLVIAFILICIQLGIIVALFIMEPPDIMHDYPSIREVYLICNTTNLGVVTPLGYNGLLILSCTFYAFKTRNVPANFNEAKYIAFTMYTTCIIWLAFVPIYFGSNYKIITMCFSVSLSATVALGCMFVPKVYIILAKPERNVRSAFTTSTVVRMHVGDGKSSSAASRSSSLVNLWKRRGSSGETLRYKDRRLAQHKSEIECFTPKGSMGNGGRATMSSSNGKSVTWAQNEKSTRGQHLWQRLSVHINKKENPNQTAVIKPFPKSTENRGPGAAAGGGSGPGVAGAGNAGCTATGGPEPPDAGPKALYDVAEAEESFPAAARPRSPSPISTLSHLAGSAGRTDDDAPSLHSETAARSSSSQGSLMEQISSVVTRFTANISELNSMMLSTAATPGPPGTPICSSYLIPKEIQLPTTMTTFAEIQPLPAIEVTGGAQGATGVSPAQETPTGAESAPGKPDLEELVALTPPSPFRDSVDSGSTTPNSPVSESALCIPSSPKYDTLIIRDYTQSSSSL

Turning to `C(#Cc1cnc2ccnn2c1)c1ccccc1` [Example 1, 6-Phenylethynyl-pyrazolo[1,5-a]pyrimidine], the concentration for a half-maximal effect (EC50) is 38 nM in test [1] and 89 nM on mGluR5 receptors.
On to `Clc1cc(Cl)cc(C#Cc2cnc3ccnn3c2)c1` [Example 2, 6-(3,5-Dichloro-phenylethynyl)-pyrazolo[1,5-a]pyrimidine], for which the EC50 in test [1] turned out to be 520 nM.
Turning to `Cc1ccc(C#Cc2cnc3ccnn3c2)cc1` [Example 9, 6-p-Tolylethynyl-pyrazolo[1,5-a]pyrimidine], the EC50 in test [1] turned out to be 77 nM.
On to `Fc1cc(F)cc(C#Cc2cnc3ccnn3c2)c1` [Example 11, 6-(3,5-Difluoro-phenylethynyl)-pyrazolo[1,5-a]pyrimidine], for which the EC50 in test [1] stood at 200 nM.
For the compound `CC(C)(C)OC(=O)N1CC=C(C#Cc2cnc3ccnn3c2)CC1` [Example 12, 4-Pyrazolo[1,5-a]pyrimidin-6-ylethynyl-3,6-dihydro-2H-pyridine-1-carboxylic acid tert-butyl ester], the EC50 in test [1] came to 1300 nM.
On to `C(#Cc1cnc2ccnn2c1)Cc1ccccc1` [Example 14, 6-(3-Phenyl-prop-1-ynyl)-pyrazolo[1,5-a]pyrimidine], for which, in test [1], the EC50 is 120 nM.
Take `O=C(c1cc2ncc(C#Cc3ccccc3)cn2n1)N1CCCCCC1` [Example 17, Azepan-1-yl-(6-phenylethynyl-pyrazolo[1,5-a]pyrimidin-2-yl)-methanone]: the 50% effective concentration (EC50) in test [1] worked out at 260 nM.
For the compound `O=C(c1cc2ncc(C#Cc3ccccc3)cn2n1)N1CCC(c2ccccc2)CC1` [Example 18, (6-Phenylethynyl-pyrazolo[1,5-a]pyrimidin-2-yl)-(4-phenyl-piperidin-1-yl)-methanone], the EC50 in test [1] came out at 340 nM.
For the compound `O=C(c1cc2ncc(C#Cc3ccccc3)cn2n1)N1CCCC1` [Example 19, (6-Phenylethynyl-pyrazolo[1,5-a]pyrimidin-2-yl)-pyrrolidin-1-yl-methanone], in test [1], the EC50 came to 610 nM.
For `Fc1ccc(-c2cc3ncc(C#Cc4ccccc4)cn3n2)cc1` [Example 28, 2-(4-Fluoro-phenyl)-6-phenylethynyl-pyrazolo[1,5-a]pyrimidine], the EC50 in test [1] is 93 nM.
On the same count and under the same terms, then `C(#Cc1ccc2ccnn2c1)c1ccccc1` [Example 29, 6-Phenylethynyl-pyrazolo[1,5-a]pyridine], with 78 nM; and `C(#Cc1ccc2ccnn2c1)C1=CCCCC1` [Example 30, 6-Cyclohex-1-enylethynyl-pyrazolo[1,5-a]pyridine], with 29 nM.
The same measure, in the same setting: then `O=C(c1nc2ncc(C#Cc3ccccc3)cn2n1)N1CCCCC1` [Example 36, (6-Phenylethynyl-[1,2,4]triazolo[1,5-a]pyrimidin-2-yl)-piperidin-1-yl-methanone], with 940 nM.
Consider `C(#Cc1cnc2cccnc2c1)c1ccccc1` [Example 41, 3-Phenylethynyl-[1,5]naphthyridine], for which the EC50 on mGluR5 receptors was determined as 5 nM.
In the case of `C(#Cc1cnc2ncoc2c1)c1ccccc1` [Example 42, 6-Phenylethynyl-oxazolo[4,5-b]pyridine], in test [1], the EC50 is 470 nM.
Turning to `Fc1ccccc1C#Cc1cnc2ncnn2c1` [Example 48, 6-(2-Fluoro-phenylethynyl)-[1,2,4]triazolo[1,5-a]pyrimidine], the EC50 in test [1] is 1000 nM.
Consider `Fc1ccc(C#Cc2cnc3ncnn3c2)cc1` [Example 49, 6-(4-Fluoro-phenylethynyl)-[1,2,4]triazolo[1,5-a]pyrimidine], for which the EC50 in test [1] was determined as 1800 nM.
For `Fc1cccc(C#Cc2ccc3ncnn3c2)c1` [Example 53, 6-(3-Fluoro-phenylethynyl)-[1,2,4]triazolo[1,5-a]pyridine], in test [1], the EC50 was 430 nM.
Still for that read-out and setting: then `O=C(c1nc2ccc(C#Cc3cccc(F)c3)cn2n1)N1CCCCC1` [Example 57, [6-(3-Fluoro-phenylethynyl)-[1,2,4]triazolo[1,5-a]pyridin-2-yl]-piperidin-1-yl-methanone], with 1200 nM.
Regarding `O=C(c1nc2ccc(C#Cc3ccccc3F)cn2n1)N1CCCCC1` [Example 58, [6-(2-Fluoro-phenylethynyl)-[1,2,4]triazolo[1,5-a]pyridin-2-yl]-piperidin-1-yl-methanone], the EC50 at mGluR5 receptors came to 1100 nM.
On to `O=C(c1nc2ccc(C#Cc3ccc(F)cc3)cn2n1)N1CCCCC1` [Example 59, [6-(4-Fluoro-phenylethynyl)-[1,2,4]triazolo[1,5-a]pyridin-2-yl]-piperidin-1-yl-methanone], for which the half-maximal effective concentration (EC50) in test [1] worked out at 6900 nM.
Turning to `Fc1ccc(C#Cc2cnc3ncoc3c2)cc1` [Example 70, 6-(4-Fluoro-phenylethynyl)-oxazolo[4,5-b]pyridine], the EC50 in test [1] was 1400 nM.
The same measure, in the same setting: then `C(#Cc1cnc2ncoc2c1)C1=CCCCC1` [Example 71, 6-Cyclohex-1-enylethynyl-oxazolo[4,5-b]pyridine], with 6.3 nM.
The same measure, in the same setting: then `Fc1cccc(F)c1C#Cc1cnc2ncsc2c1` [Example 78, 6-((2,6-Difluorophenyl)ethynyl)thiazolo[4,5-b]pyridine], with 1700 nM.
The same measure, in the same setting: then `C(#Cc1ccc2nc(-c3ccco3)nn2c1)c1ccccc1` [Example 84, 2-Furan-2-yl-6-phenylethynyl-[1,2,4]triazolo[1,5-a]pyridine], with 410 nM; and `Cc1ccccc1C#Cc1cnc2nccnc2c1` [Example 87, 7-(o-Tolylethynyl)-pyrido[2,3-b]pyrazine], with 1100 nM.
Consider `Oc1ccc(C#Cc2cnc3nccnc3c2)cc1` [Example 90, 4-(Pyrido[2,3-b]pyrazin-7-ylethynyl)phenol], for which the EC50 at mGluR5 receptors turned out to be 1000 nM.
On to `COc1cnc2ncc(C#Cc3ccccc3)cc2n1` [Example 92, 2-Methoxy-7-(phenylethynyl)pyrido[2,3-b]pyrazine], for which the EC50 in test [1] came out at 280 nM.
With `C(#Cc1cnc2cccnc2c1)c1cccnc1` [Example 101, 3-(Pyridin-3-ylethynyl)-1,5-naphthyridine], the EC50 in test [1] stood at 470 nM.
Still for that read-out and setting: then `Cn1cnc2cc(C#Cc3cccc(F)c3)cnc21` [Example 105, 6-(3-Fluoro-phenylethynyl)-3-methyl-3H-imidazo[4,5-b]pyridine], with 21 nM; and `Cn1cnc2cc(C#Cc3ccc(F)cc3)cnc21` [Example 106, 6-(4-Fluoro-phenylethynyl)-3-methyl-3H-imidazo[4,5-b]pyridine], with 57 nM; and `Fc1cccc(F)c1C#Cc1cnc2nccnc2c1` [Example 107, 7-((2,6-Difluorophenyl)ethynyl)pyrido[2,3-b]pyrazine], with 3700 nM.
On the same count and under the same terms, then `Fc1cc(F)cc(C#Cc2cnc3nccnc3c2)c1` [Example 108, 7-((3,5-Difluorophenyl)ethynyl)pyrido[2,3-b]pyrazine], with 4100 nM; and `Fc1ccc(C#Cc2cnc3nccnc3c2)c(F)c1` [Example 109, 7-((2,4-Difluorophenyl)ethynyl)pyrido[2,3-b]pyrazine], with 3500 nM.
Regarding `Clc1cccc(C#Cc2cnc3nccnc3c2)c1` [Example 111, 7-((3-Chlorophenyl)ethynyl)pyrido[2,3-b]pyrazine], the half-maximal effective concentration (EC50) in test [1] was 120 nM.
On to `Cc1ccc(C#Cc2cnc3cccnc3c2)c(F)c1` [Example 115, 3-((2-Fluoro-4-methylphenyl)ethynyl)-[1,5]naphthyridine], for which, in test [1], the EC50 was 690 nM.
